Tested on: 624824-186-R-J3-PDC multicell spheroids, viability
Assay: Anticancer human tumor 624824-186-R-J3-PDC patient-derived colon adenocarcinoma cell line growth inhibition [PI3K]
Conditions: for IC50: curve of first compound; for viability, T/C: stronger effect = lower value
Description: Combinatorial screen of targeted agents with the PI3K inhibitors inavolisib, alpelisib, duvelisib, and copanlisib in multi-cell type tumor spheroids
A high-throughput screen of multi-cell type tumor spheroids was designed to identify active combinations of targeted small molecules and PI3K pathway inhibitors. Complex spheroids include a stromal component modeled by human endothelial cells (HUVEC) and fibroblasts modeled by human mesenchymal stem cells (MSCs). The concentration ranges selected for each drug and investigational agent were based upon clinically achievable concentrations if the clinical Cmax of the agent was known.
Compounds. The drugs and investigational agents: inavolisib (NSC800729), alpelisib (NSC765974), duvelisib (NSC772469), copanlisib (NSC816437), ipatasertib (NSC767898), afuresertib (NSC778305), talazoparib (NSC767125), sapanisertib (NSC764658), selumetinib (NSC741078), tovorafenib (DAY101, NSC766906), vemurafenib (NSC761431), ravoxertinib (NSC781343), sotorasib (NSC818433), MRTX1133 (NSC 836407), abemaciclib (NSC 768073), palbociclib (NSC758247), venetoclax (NSC 766270), SY5609 (NSC837396), enzalutamide (NSC755605), and darolutamide (NSC825331), were obtained from the National Cancer Institute (NCI) Developmental Therapeutics Program Chemical Repository. The FDA-approved anticancer drug set is available from the NCI Developmental Therapeutics Program. […] The stock solutions were prepared in dimethyl sulfoxide (DMSO, Sigma-Aldrich, St. Louis, MO, cat. D2650) at 800-fold the tested concentration and stored at -70 degrees C prior to their use. All drugs and investigational agents were tested over a range starting from a high concentration at or near the clinical Cmax and decreasing in half-log increments. If the clinical Cmax for an agent had not been determined, the highest concentration tested was 10 microM.
Cell Culture. All cells were maintained in an incubator at 37 degrees C and 5% CO2 with 95% humidity. The PDC lines were cultured according to standard operating procedures established by the NCI PDMR (https://pdmr.cancer.gov/sops/default.htm). All PDCs were thawed and cultured in Matrigel-coated flasks prepared with a working solution of 1X Ham's F-12 nutrient mix, without supplementation (Invitrogen, Waltham, MA, cat. 11765054), 100 U/mL penicillin-streptomycin (Invitrogen, cat. 15140122), and 2.5% Matrigel (Corning Inc., Corning, NY, cat. 354248) for the first three passages. The 354836-022-R-J1-PDC, 475296-252-R-J1-PDC, and 997726-040-R-J2-PDC lines were cultured in 6A media, which includes advanced DMEM/F-12 (Thermo Fisher Scientific, cat. 12634028), 10 mM HEPES (Thermo Fisher Scientific, cat. 15630080), 1X GlutaMAX supplement (Thermo Fisher Scientific, cat. 35050061), 0.1 mg/mL primocin (InvivoGen, San Diego, CA, cat. ant-pm-2), 10% defined fetal bovine serum, heat inactivated (HyClone Laboratories Inc., Logan, UT, cat. SH30070.03HI), 50% L-WRN conditioned media (ATCC, cat. CRL-3276), 1.25 mM N-Acetyl-L-cysteine (Sigma-Aldrich, cat. A9165), 10 mM nicotinamide (Sigma-Aldrich, cat. N0636), 1X B-27 supplement (Thermo Fisher Scientific, cat. 17504044), 1X N-2 supplement (Thermo Fisher Scientific, cat. 17502048), and 10 microM Y-27632 dihydrochloride (Tocris Bioscience, Bristol, United Kingdom, cat. 1254). The 624824-186-R-J2-PDC line was cultured in 6C/Colon 1B media, which includes all 6A media components plus 50 ng/mL human EGF recombinant protein (Thermo Fisher Scientific, cat. PHG0311). […]

[1] = second compound 0.0316 µM, first compound 0.0316 µM
[2] = second compound 0.0316 µM, first compound 0.1 µM
[3] = second compound 0.1 µM, first compound 0.0316 µM
[4] = second compound 0.1 µM, first compound 0.1 µM
[5] = second compound 0.316 µM, first compound 0.0316 µM
[6] = second compound 0.316 µM, first compound 0.1 µM
[7] = second compound 1 µM, first compound 0.0316 µM
[8] = second compound 1 µM, first compound 0.1 µM
[9] = second compound 3.16 µM, first compound 0.0316 µM
[10] = second compound 3.16 µM, first compound 0.1 µM
[11] = second compound 10 µM, first compound 0.0316 µM
[12] = second compound 10 µM, first compound 0.1 µM
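Note: spheroids exposed to agents for seven days before luminescence read.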
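Throughout, for viability, T/C: luminescent signal used as a stand-in for spheroid viability; percent viability relative to DMSO vehicle control wells taken as 100%.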

Question: Which results are given for `CC(C)n1nc(-c2ccc3oc(N)nc3c2)c2c(N)ncnc21` + Cc1nc(NC(=O)N2CCCC2C(N)=O)sc1-c1ccnc(C(C)(C)C(F)(F)F)c1?
Answer: IC50 (second compound 0.0316 µM): > 100 nM; IC50 (second compound 0.1 µM): 98.4 nM; IC50 (second compound 0.316 µM): 78.7 nM; IC50 (second compound 1 µM): 64.4 nM; IC50 (second compound 3.16 µM): 28.6 nM; IC50 (second compound 10 µM): 15.5 nM; viability, T/C (second compound 0.0316 µM, first compound 0.000316 µM): 110%; viability, T/C (second compound 0.0316 µM, first compound 0.001 µM): 104%; viability, T/C (second compound 0.0316 µM, first compound 0.00316 µM): 112%; viability, T/C (second compound 0.0316 µM, first compound 0.01 µM): 99.1%; viability, T/C [1]: 91.3%; viability, T/C [2]: 53.3%; viability, T/C (second compound 0.1 µM, first compound 0.000316 µM): 103%; viability, T/C (second compound 0.1 µM, first compound 0.001 µM): 101%; viability, T/C (second compound 0.1 µM, first compound 0.00316 µM): 101%; viability, T/C (second compound 0.1 µM, first compound 0.01 µM): 110%; viability, T/C [3]: 97.8%; viability, T/C [4]: 48.9%; viability, T/C (second compound 0.316 µM, first compound 0.000316 µM): 108%; viability, T/C (second compound 0.316 µM, first compound 0.001 µM): 101%; viability, T/C (second compound 0.316 µM, first compound 0.00316 µM): 105%; viability, T/C (second compound 0.316 µM, first compound 0.01 µM): 100%; viability, T/C [5]: 89.2%; viability, T/C [6]: 40%; viability, T/C (second compound 1 µM, first compound 0.000316 µM): 104%; viability, T/C (second compound 1 µM, first compound 0.001 µM): 105%; viability, T/C (second compound 1 µM, first compound 0.00316 µM): 97.2%; viability, T/C (second compound 1 µM, first compound 0.01 µM): 91.3%; viability, T/C [7]: 77%; viability, T/C [8]: 34%; viability, T/C (second compound 3.16 µM, first compound 0.000316 µM): 87.3%; viability, T/C (second compound 3.16 µM, first compound 0.001 µM): 94.6%; viability, T/C (second compound 3.16 µM, first compound 0.00316 µM): 89.5%; viability, T/C (second compound 3.16 µM, first compound 0.01 µM): 72.9%; viability, T/C [9]: 48.5%; viability, T/C [10]: 30.4%; viability, T/C (second compound 10 µM, first compound 0.000316 µM): 67.5%; viability, T/C (second compound 10 µM, first compound 0.001 µM): 68.4%; viability, T/C (second compound 10 µM, first compound 0.00316 µM): 68.1%; viability, T/C (second compound 10 µM, first compound 0.01 µM): 52.8%; viability, T/C [11]: 42%; viability, T/C [12]: 25.7%

Question: Which results are given for `CC(Cn1ccc(-c2ccc(C#N)c(Cl)c2)n1)NC(=O)c1cc(C(C)O)[nH]n1` (centres undefined) + Cc1nc(NC(=O)N2CCCC2C(N)=O)sc1-c1ccnc(C(C)(C)C(F)(F)F)c1?
Answer: IC50 (second compound 0.0316 µM): > 10000 nM; IC50 (second compound 0.1 µM): > 10000 nM; IC50 (second compound 0.316 µM): > 10000 nM; IC50 (second compound 1 µM): > 10000 nM; IC50 (second compound 3.16 µM): > 10000 nM; IC50 (second compound 10 µM): > 10000 nM; viability, T/C [1]: 101%; viability, T/C [2]: 107%; viability, T/C (second compound 0.0316 µM, first compound 0.316 µM): 102%; viability, T/C (second compound 0.0316 µM, first compound 1 µM): 104%; viability, T/C (second compound 0.0316 µM, first compound 3.16 µM): 104%; viability, T/C (second compound 0.0316 µM, first compound 10 µM): 113%; viability, T/C [3]: 108%; viability, T/C [4]: 105%; viability, T/C (second compound 0.1 µM, first compound 0.316 µM): 108%; viability, T/C (second compound 0.1 µM, first compound 1 µM): 102%; viability, T/C (second compound 0.1 µM, first compound 3.16 µM): 107%; viability, T/C (second compound 0.1 µM, first compound 10 µM): 109%; viability, T/C [5]: 107%; viability, T/C [6]: 101%; viability, T/C (second compound 0.316 µM, first compound 0.316 µM): 104%; viability, T/C (second compound 0.316 µM, first compound 1 µM): 93.1%; viability, T/C (second compound 0.316 µM, first compound 3.16 µM): 115%; viability, T/C (second compound 0.316 µM, first compound 10 µM): 107%; viability, T/C [7]: 111%; viability, T/C [8]: 101%; viability, T/C (second compound 1 µM, first compound 0.316 µM): 109%; viability, T/C (second compound 1 µM, first compound 1 µM): 101%; viability, T/C (second compound 1 µM, first compound 3.16 µM): 101%; viability, T/C (second compound 1 µM, first compound 10 µM): 98.7%; viability, T/C [9]: 86.4%; viability, T/C [10]: 91.5%; viability, T/C (second compound 3.16 µM, first compound 0.316 µM): 88.3%; viability, T/C (second compound 3.16 µM, first compound 1 µM): 91.4%; viability, T/C (second compound 3.16 µM, first compound 3.16 µM): 79.3%; viability, T/C (second compound 3.16 µM, first compound 10 µM): 86.1%; viability, T/C [11]: 72.4%; viability, T/C [12]: 75.6%; viability, T/C (second compound 10 µM, first compound 0.316 µM): 66.5%; viability, T/C (second compound 10 µM, first compound 1 µM): 67.3%; viability, T/C (second compound 10 µM, first compound 3.16 µM): 67.3%; viability, T/C (second compound 10 µM, first compound 10 µM): 62.4%
